In paper PMC12738788, “Structural snapshots of Pseudomonas aeruginosa LptB2FG and LptB2FGC reveal insights into lipopolysaccharide recognition and transport” (Nature Communications, 2025):
“And” between values parts separate entries of the source, which are not always exact repeats. Equal entries are not always repeated.

Tests used:
P. aeruginosa LptB2FGC [1] = assay: Native MS lipid binding to LptB2FGC; design: species or system Pseudomonas aeruginosa; settings: for 1x lipid_Ratio / 2x lipid_Ratio / 3x lipid_Ratio / 4x lipid_Ratio / Apo_Ratio: 3 μM protein
Procedure: (§1) Purified LptB2FG(C) was buffer exchanged into MS Buffer (200 mM ammonium acetate + 0.04% (w/v) [G1]-OGD) using a centrifugal buffer exchange device (Micro Bio-Spin 6, Bio-Rad) as previously described. The freshly buffer-exchanged protein was kept on ice, with protein concentration measured as before. The protein samples were diluted as desired in 200 mM ammonium acetate buffer with detergent as necessary and loaded into a gold-coated capillary Clark borosilicate capillary (Harvard Apparatus) prepared in the laboratory. The experiments were performed using a Q Exactive UHMR Hybrid Quadrupole-Orbitrap mass spectrometer (Thermo Fisher Scientific). Typically, 2 μl of buffer-exchanged protein solution was electrosprayed in negative polarity from in-house prepared gold-coated borosilicate capillaries. The instrument parameters used for data collection were: capillary voltage 1.1 kV, S-lens RF 100%, quadrupole selection from 1000 to 20,000 m/z range, HCD collision energy 200–300 V, source fragmentation 0 V, in-source trapping 200–300 V in negative mode. The ion transfer optics was set as follows: injection flatapole − 5 V, inter-flatapole lens − 4 V, bent flatapole − 2 V, transfer multipole 0 V. The resolution of the instrument was 8750 at m/z = 200 (transient time of 64 ms), argon pressure in the HCD cell was maintained at approximately at 8 × 10^–10 mbar and source temperature was kept at 200 °C. The noise level was set at 3 rather than the default value of 4.64. Calibration of the instruments was performed using 10 mg/ml solution of caesium iodide in water. Where required, baseline subtraction was performed to achieve a better-quality mass spectrum. Data were analysed using the Xcalibur 3.0 (Thermo Scientific), NaViA[64], and UniDec (www.unidec.chem.ox.ac.uk)[65] software packages.
(§2) Lipid and nucleotide binding experiments were performed by diluting them in 200 mM ammonium acetate supplemented with 0.04% [G1]-OGD. Native MS experiments were performed at a total LptB2FG(C) protein concentration of 3 μM.
(§3) Peak intensities were extracted using UniDec, and the ratios of the intensity of the ligand bound peak versus the total intensity of all observed species were calculated. The apparent dissociation constant (KD) values for individual lipid-binding events to LptB2FG and LptB2FGC were calculated through a sequential lipid-binding model using a previously described Python script. When necessary, a Welch’s T-test was used to evaluate statistically significant differences and data were plotted using GraphPad Prism 8.0. Error bars in the plots indicate standard deviation, and all experiments were performed in triplicate (n = 3).

P. aeruginosa LptB2FG = assay: Native MS lipid binding to LptB2FG; design: species or system Pseudomonas aeruginosa; settings: for 1x lipid_Ratio / 2x lipid_Ratio / 3x lipid_Ratio / 4x lipid_Ratio / Apo_Ratio: 3 μM protein
Procedure: as §1, §2, §3

[2] = biological target: P. aeruginosa LptB with a C-terminal 6 x His-tag (P. aeruginosa); assay: non-reducing SDS-PAGE; SDS-PAGE gel of the purified complex, run under non-reducing conditions
[3] = biological target: P. aeruginosa LptB with a C-terminal 6 x His-tag (P. aeruginosa); assay: native MS; complex co-expressed and purified by the His tag on LptB (IMAC, SEC), exchanged into 200 mM ammonium acetate + 0.04% (w/v) [G1]-OGD; negative polarity
[4] = biological target: P. aeruginosa LptB with a C-terminal 6 x His-tag (P. aeruginosa); assay: cryo-EM structure; LptB2FG/LptB2FGC co-expressed, co-purified and delipidated, reconstituted in MSP1D1 nanodiscs with E. coli total extract lipid; 20 mM Tris-HCl pH 7.5, 100 mM NaCl; substrate-free; three LptB2FG and two LptB2FGC conformations from one sample
P. aeruginosa LptB2FGC [5] = assay: Native MS: CDL added to LptB2FG(C):Re-LPS complex (competition); assay type: binding, Pseudomonas aeruginosa; settings: Re-LPS 1 uM + CDL 2.5 uM
Procedure: In particular, we chose 14:0 CDL to be consistent with the 14 carbon lipid tails of Re-LPS, and incubated this with the LptB2FG/LptB2FGC complex, we could observe ~ 50% of LptB2FGC bound to CDL at 2.5 μM concentration (Fig. 5b). Apparent KD calculation indicated a similar trend when comparing LptB2FG and LptB2FGC interaction with CDL to that of LPS (Supplementary Fig. S18). […] We set out to test whether CDL influences LPS binding to LptB2FGC. To this end, we added increasing concentrations of CDL (1.0 to 5 μM) to a solution containing LptB2FG(C):Re-LPS complex (Supplementary Fig. S19).
Purified LptB2FG(C) was buffer exchanged into MS Buffer (200 mM ammonium acetate + 0.04% (w/v) [G1]-OGD) using a centrifugal buffer exchange device (Micro Bio-Spin 6, Bio-Rad) as previously described. The freshly buffer-exchanged protein was kept on ice, with protein concentration measured as before. […] Data were analysed using the Xcalibur 3.0 (Thermo Scientific), NaViA[64], and UniDec (www.unidec.chem.ox.ac.uk)[65] software packages. […]
Peak intensities were extracted using UniDec, and the ratios of the intensity of the ligand bound peak versus the total intensity of all observed species were calculated. The apparent dissociation constant (KD) values for individual lipid-binding events to LptB2FG and LptB2FGC were calculated through a sequential lipid-binding model using a previously described Python script. […]

[6] = first lipid-binding event, sequential lipid-binding model, native MS, read-out: apparent dissociation constant KD(1)

Compound: CCCCCCCCCCC[C@@H](O)CC(=O)N[C@H]1[C@H](OC[C@H]2O[C@H](OP(=O)(O)O)[C@H](NC(=O)C[C@H](O)CCCCCCCCCCC)[C@@H](OC(=O)C[C@H](O)CCCCCCCCCCC)[C@@H]2O)O[C@H](CO)[C@@H](OP(=O)(O)O)[C@@H]1OC(=O)C[C@H](O)CCCCCCCCCCC [lipid IVA]
- lipid IVA occupancy of LptB2FGC (P. aeruginosa LptB2FGC [1]; pre-delipidation, ClearColi-expressed complex, with 2× adducts): ~ 80%
- apo fraction of LptB2FG (P. aeruginosa LptB2FG; pre-delipidation, ClearColi-expressed complex, lipid IVA sole LPS-related species): ~ 60%

Compound: P. aeruginosa LptB with a C-terminal 6 x His-tag (natural protein)
- stoichiometry N [2]: 2
- stoichiometry N [3]: 2
- stoichiometry N [4]: 2

Compound: CCCCCCCCCCCCCC(=O)OC[C@H](COP(=O)(O)OCC(O)COP(=O)(O)OC[C@@H](COC(=O)CCCCCCCCCCCCC)OC(=O)CCCCCCCCCCCCC)OC(=O)CCCCCCCCCCCCC (stereo partly shown) [CDL, 1’,3’-bis[1,2-dimyristoyl-sn-glycero-3-phospho]-glycerol]
- 1x lipid_Ratio (P. aeruginosa LptB2FGC [1]; 0.25 μM lipid): 0.1955 and 0.2067 and 0.2427
- 2x lipid_Ratio (P. aeruginosa LptB2FGC [1]; 0.25 μM lipid): 0
- 3x lipid_Ratio (P. aeruginosa LptB2FGC [1]; 0.25 μM lipid): 0
- 4x lipid_Ratio (P. aeruginosa LptB2FGC [1]; 0.25 μM lipid): 0
- Apo_Ratio (P. aeruginosa LptB2FGC [1]; 0.25 μM lipid): 0.8045 and 0.7933 and 0.7573
- 1x lipid_Ratio (P. aeruginosa LptB2FGC [1]; 0.5 μM lipid): 0.236 and 0.2635 and 0.2763
- 2x lipid_Ratio (P. aeruginosa LptB2FGC [1]; 0.5 μM lipid): 0
- 3x lipid_Ratio (P. aeruginosa LptB2FGC [1]; 0.5 μM lipid): 0
- 4x lipid_Ratio (P. aeruginosa LptB2FGC [1]; 0.5 μM lipid): 0
- Apo_Ratio (P. aeruginosa LptB2FGC [1]; 0.5 μM lipid): 0.764 and 0.7365 and 0.7237
- 1x lipid_Ratio (P. aeruginosa LptB2FGC [1]; 1 μM lipid): 0.2764 and 0.2872 and 0.3074
- 2x lipid_Ratio (P. aeruginosa LptB2FGC [1]; 1 μM lipid): 0.0846 and 0.07455 and 0.1186
- 3x lipid_Ratio (P. aeruginosa LptB2FGC [1]; 1 μM lipid): 0
- 4x lipid_Ratio (P. aeruginosa LptB2FGC [1]; 1 μM lipid): 0
- Apo_Ratio (P. aeruginosa LptB2FGC [1]; 1 μM lipid): 0.639 and 0.6382 and 0.574
- 1x lipid_Ratio (P. aeruginosa LptB2FGC [1]; 1.25 μM lipid): 0.3498 and 0.3261 and 0.3766
- 3x lipid_Ratio (P. aeruginosa LptB2FGC [1]; 1.25 μM lipid): 0
- 4x lipid_Ratio (P. aeruginosa LptB2FGC [1]; 1.25 μM lipid): 0
- Apo_Ratio (P. aeruginosa LptB2FGC [1]; 1.25 μM lipid): 0.545 and 0.5422 and 0.5586
- 1x lipid_Ratio (P. aeruginosa LptB2FGC [1]; 2.5 μM lipid): 0.3774 and 0.3613 and 0.3792
- 2x lipid_Ratio (P. aeruginosa LptB2FGC [1]; 2.5 μM lipid): 0.1928 and 0.1837 and 0.1898
- 3x lipid_Ratio (P. aeruginosa LptB2FGC [1]; 2.5 μM lipid): 0.07276 and 0.06329 and 0.08767
- 4x lipid_Ratio (P. aeruginosa LptB2FGC [1]; 2.5 μM lipid): 0
- Apo_Ratio (P. aeruginosa LptB2FGC [1]; 2.5 μM lipid): 0.3571 and 0.3916 and 0.3434
- 1x lipid_Ratio (P. aeruginosa LptB2FGC [1]; 5 μM lipid): 0.2708 and 0.2286 and 0.261
- 2x lipid_Ratio (P. aeruginosa LptB2FGC [1]; 5 μM lipid): 0.3089 and 0.3049 and 0.3123
- 3x lipid_Ratio (P. aeruginosa LptB2FGC [1]; 5 μM lipid): 0.1993 and 0.2344 and 0.2124
- 4x lipid_Ratio (P. aeruginosa LptB2FGC [1]; 5 μM lipid): 0.08447 and 0.1259 and 0.09283
- Apo_Ratio (P. aeruginosa LptB2FGC [1]; 5 μM lipid): 0.1365 and 0.1062 and 0.1214
- Kd (P. aeruginosa LptB2FGC [1]; [6]): 3.07 ± 0.09 µM
- 1x lipid_Ratio (P. aeruginosa LptB2FG; 0.25 μM lipid): 0.1443 and 0.1705 and 0.1602
- 2x lipid_Ratio (P. aeruginosa LptB2FG; 0.25 μM lipid): 0
- 3x lipid_Ratio (P. aeruginosa LptB2FG; 0.25 μM lipid): 0
- 4x lipid_Ratio (P. aeruginosa LptB2FG; 0.25 μM lipid): 0
- Apo_Ratio (P. aeruginosa LptB2FG; 0.25 μM lipid): 0.8557 and 0.8295 and 0.8398
- 1x lipid_Ratio (P. aeruginosa LptB2FG; 0.5 μM lipid): 0.199 and 0.1911 and 0.2318
- 2x lipid_Ratio (P. aeruginosa LptB2FG; 0.5 μM lipid): 0
- 3x lipid_Ratio (P. aeruginosa LptB2FG; 0.5 μM lipid): 0
- 4x lipid_Ratio (P. aeruginosa LptB2FG; 0.5 μM lipid): 0
- Apo_Ratio (P. aeruginosa LptB2FG; 0.5 μM lipid): 0.801 and 0.8089 and 0.7682
- 1x lipid_Ratio (P. aeruginosa LptB2FG; 1 μM lipid): 0.2261 and 0.2185 and 0.1754
- 3x lipid_Ratio (P. aeruginosa LptB2FG; 1 μM lipid): 0
- 4x lipid_Ratio (P. aeruginosa LptB2FG; 1 μM lipid): 0
- Apo_Ratio (P. aeruginosa LptB2FG; 1 μM lipid): 0.7468 and 0.7118 and 0.7769
- 1x lipid_Ratio (P. aeruginosa LptB2FG; 1.25 μM lipid): 0.2786 and 0.2616 and 0.2584
- 2x lipid_Ratio (P. aeruginosa LptB2FG; 1.25 μM lipid): 0.04833 and 0.04258 and 0.08199
- 3x lipid_Ratio (P. aeruginosa LptB2FG; 1.25 μM lipid): 0
- 4x lipid_Ratio (P. aeruginosa LptB2FG; 1.25 μM lipid): 0
- Apo_Ratio (P. aeruginosa LptB2FG; 1.25 μM lipid): 0.6731 and 0.6958 and 0.6596
- 1x lipid_Ratio (P. aeruginosa LptB2FG; 2.5 μM lipid): 0.3458 and 0.3529 and 0.3561
- 2x lipid_Ratio (P. aeruginosa LptB2FG; 2.5 μM lipid): 0.07878 and 0.07812 and 0.08017
- 3x lipid_Ratio (P. aeruginosa LptB2FG; 2.5 μM lipid): 0
- 4x lipid_Ratio (P. aeruginosa LptB2FG; 2.5 μM lipid): 0
- Apo_Ratio (P. aeruginosa LptB2FG; 2.5 μM lipid): 0.5754 and 0.569 and 0.5638
- 1x lipid_Ratio (P. aeruginosa LptB2FG; 5 μM lipid): 0.4041 and 0.3985 and 0.4061
- 2x lipid_Ratio (P. aeruginosa LptB2FG; 5 μM lipid): 0.2783 and 0.2976 and 0.263
- 3x lipid_Ratio (P. aeruginosa LptB2FG; 5 μM lipid): 0.07217 and 0.104 and 0.096
- 4x lipid_Ratio (P. aeruginosa LptB2FG; 5 μM lipid): 0
- Apo_Ratio (P. aeruginosa LptB2FG; 5 μM lipid): 0.2455 and 0.1999 and 0.2349
- Kd (P. aeruginosa LptB2FG; [6]): 4.8 ± 0.14 µM
- 1x CDL (P. aeruginosa LptB2FGC [5]): 0.1327 and 0.2003 and 0.1609
- 2x CDL (P. aeruginosa LptB2FGC [5]): 0
